Data reported in patent US20050004177A1, “Combination of an allosteric inhibitor of matrix metalloproteinase-13 and a ligand to an alpha-2-delta receptor” (WARNER-LAMBERT COMPANY LLC, priority 2003, published 2005).

**Q.** For `O=C(O)c1ccc(Cn2nnc(-c3cccc(C#CCc4ccccc4)c3)n2)cc1` [Preparation 2, 4-{5-[3-(3-Phenyl-prop-1-ynyl)-phenyl]-tetrazol-2-ylmethyl}-benzoic acid], which melting point is on record?
**A.** 195 to 198 °C
